Assay results: publication PMC2864793 (Molecular cell, 2010)

Legend:
IRE1 [1] = target: T1, IRE1 (Saccharomyces cerevisiae, UniProt P32361, D797A); assay: fluorescent RNase activation assay at […]; format: biochemical
T1 sequence (P32361 658-1115 D797A): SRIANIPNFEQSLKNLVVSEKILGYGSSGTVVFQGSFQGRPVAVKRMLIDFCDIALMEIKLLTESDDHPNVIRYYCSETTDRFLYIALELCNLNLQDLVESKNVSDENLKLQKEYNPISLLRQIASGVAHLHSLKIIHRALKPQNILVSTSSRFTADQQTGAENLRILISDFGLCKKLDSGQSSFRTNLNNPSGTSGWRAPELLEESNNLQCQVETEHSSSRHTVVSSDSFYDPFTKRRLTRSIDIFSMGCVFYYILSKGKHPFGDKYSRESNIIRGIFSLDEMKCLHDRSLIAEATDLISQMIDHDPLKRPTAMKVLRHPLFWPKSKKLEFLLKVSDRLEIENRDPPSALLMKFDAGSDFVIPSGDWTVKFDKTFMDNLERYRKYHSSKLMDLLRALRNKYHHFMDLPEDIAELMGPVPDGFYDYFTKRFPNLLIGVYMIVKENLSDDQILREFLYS

IRE1 [2] = target: IRE1 (Saccharomyces cerevisiae, UniProt P32361); assay: co-crystal structure with quercetin; format: biochemical
IRE1 [3] = target: T2, IRE1 (Saccharomyces cerevisiae, UniProt P32361, K985A); assay: RNase activation assay and DSS crosslinking at […] ADP; format: biochemical
T2 sequence (P32361 658-1115 K985A): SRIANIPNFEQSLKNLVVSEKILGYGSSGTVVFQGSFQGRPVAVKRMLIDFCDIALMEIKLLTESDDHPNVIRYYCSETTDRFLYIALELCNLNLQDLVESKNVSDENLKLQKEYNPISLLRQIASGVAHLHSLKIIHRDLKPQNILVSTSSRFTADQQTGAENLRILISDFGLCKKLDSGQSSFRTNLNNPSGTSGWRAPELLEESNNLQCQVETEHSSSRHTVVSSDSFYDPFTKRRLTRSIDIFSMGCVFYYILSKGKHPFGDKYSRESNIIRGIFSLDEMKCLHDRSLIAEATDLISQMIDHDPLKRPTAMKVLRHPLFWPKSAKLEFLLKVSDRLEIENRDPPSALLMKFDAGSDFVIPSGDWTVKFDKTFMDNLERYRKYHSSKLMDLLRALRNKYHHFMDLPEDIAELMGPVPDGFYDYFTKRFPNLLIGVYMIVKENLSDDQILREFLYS

cross-linking = target: the molecule itself; assay: cross-linking
AUC = target: the molecule itself; assay: AUC

In the case of `O=c1c(O)c(-c2ccc(O)c(O)c2)oc2cc(O)cc(O)c12` [quercetin], the “fluorescent RNase activation assay at 25 μM” value (IRE1 [1]) is reported as “addition of quercetin substantially activates its RNase (Figure 7C). Such activation was Q-site dependent”.

In the case of `Nc1ncnc2c1ncn2[C@@H]1O[C@H](COP(=O)(O)OP(=O)(O)O)[C@@H](O)[C@H]1O` [ADP], the EC50 (IRE1 [2]) is reported as about 40 µM and the “RNase activation assay and DSS crosslinking at 2 mM ADP” value (IRE1 [3]) is reported as “abolished by the Q-site mutant IRE1^K985A, although ADP-dependent crosslinking was still observed”.

B1: IRE1^K985A (Q-site mutant of yeast IRE1 658–1115) (domain or fragment, UniProt P32361 658-1115, looked up)
chain: SRIANIPNFEQSLKNLVVSEKILGYGSSGTVVFQGSFQGRPVAVKRMLIDFCDIALMEIKLLTESDDHPNVIRYYCSETTDRFLYIALELCNLNLQDLVESKNVSDENLKLQKEYNPISLLRQIASGVAHLHSLKIIHRDLKPQNILVSTSSRFTADQQTGAENLRILISDFGLCKKLDSGQSSFRTNLNNPSGTSGWRAPELLEESNNLQCQVETEHSSSRHTVVSSDSFYDPFTKRRLTRSIDIFSMGCVFYYILSKGKHPFGDKYSRESNIIRGIFSLDEMKCLHDRSLIAEATDLISQMIDHDPLKRPTAMKVLRHPLFWPKSAKLEFLLKVSDRLEIENRDPPSALLMKFDAGSDFVIPSGDWTVKFDKTFMDNLERYRKYHSSKLMDLLRALRNKYHHFMDLPEDIAELMGPVPDGFYDYFTKRFPNLLIGVYMIVKENLSDDQILREFLYS
modifications: purified as a phosphorylated protein (sites not given)
B1: binds (cross-linking).

B2: cytosolic portion of yeast IRE1 (residues 658–1115; inclusive of both the kinase and KEN domains) (domain or fragment, UniProt P32361 658-1115, looked up)
chain: SRIANIPNFEQSLKNLVVSEKILGYGSSGTVVFQGSFQGRPVAVKRMLIDFCDIALMEIKLLTESDDHPNVIRYYCSETTDRFLYIALELCNLNLQDLVESKNVSDENLKLQKEYNPISLLRQIASGVAHLHSLKIIHRDLKPQNILVSTSSRFTADQQTGAENLRILISDFGLCKKLDSGQSSFRTNLNNPSGTSGWRAPELLEESNNLQCQVETEHSSSRHTVVSSDSFYDPFTKRRLTRSIDIFSMGCVFYYILSKGKHPFGDKYSRESNIIRGIFSLDEMKCLHDRSLIAEATDLISQMIDHDPLKRPTAMKVLRHPLFWPKSKKLEFLLKVSDRLEIENRDPPSALLMKFDAGSDFVIPSGDWTVKFDKTFMDNLERYRKYHSSKLMDLLRALRNKYHHFMDLPEDIAELMGPVPDGFYDYFTKRFPNLLIGVYMIVKENLSDDQILREFLYS
modifications: phosphorylated when purified from bacteria (sites not given for this construct)
For B2, the “stoichiometry N” value (AUC) was 2.
